Like-named read-outs stand apart in the source and are kept apart here.
Experiments:
Format in all cases: cell-based
[1] = molecular target: T1, GIRK channel (Homo sapiens, UniProt P48051+P48549); experiment: Receptor-independent effect on GIRK channels in oocytes expressing the GIRK channel but not the CB1 receptor; conditions: for effect of application on GIRK currents: 10 µM, oocyte expressing the GIRK channel only; for direct effect on the GIRK channel: oocytes without CB1 receptor, any membrane potential
T1 construct: expressed in transfected cells; host or cells: Xenopus laevis oocytes injected with cRNA
T1 sequence (P48549 1-501): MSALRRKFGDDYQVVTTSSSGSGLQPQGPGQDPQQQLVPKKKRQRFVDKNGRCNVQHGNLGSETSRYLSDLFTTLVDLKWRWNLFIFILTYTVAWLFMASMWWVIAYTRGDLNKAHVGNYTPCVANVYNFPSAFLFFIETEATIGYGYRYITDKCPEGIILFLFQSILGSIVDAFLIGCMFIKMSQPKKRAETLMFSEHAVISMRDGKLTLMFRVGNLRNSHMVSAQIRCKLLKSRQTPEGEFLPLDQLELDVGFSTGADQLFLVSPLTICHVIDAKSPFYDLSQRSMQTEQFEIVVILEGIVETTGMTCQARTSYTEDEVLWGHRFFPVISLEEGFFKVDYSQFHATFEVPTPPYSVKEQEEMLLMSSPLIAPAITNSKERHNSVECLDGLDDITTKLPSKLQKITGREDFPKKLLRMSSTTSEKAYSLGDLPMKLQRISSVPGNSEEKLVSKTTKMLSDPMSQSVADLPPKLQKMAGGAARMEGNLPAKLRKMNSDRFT
T1 sequence (P48051 1-423): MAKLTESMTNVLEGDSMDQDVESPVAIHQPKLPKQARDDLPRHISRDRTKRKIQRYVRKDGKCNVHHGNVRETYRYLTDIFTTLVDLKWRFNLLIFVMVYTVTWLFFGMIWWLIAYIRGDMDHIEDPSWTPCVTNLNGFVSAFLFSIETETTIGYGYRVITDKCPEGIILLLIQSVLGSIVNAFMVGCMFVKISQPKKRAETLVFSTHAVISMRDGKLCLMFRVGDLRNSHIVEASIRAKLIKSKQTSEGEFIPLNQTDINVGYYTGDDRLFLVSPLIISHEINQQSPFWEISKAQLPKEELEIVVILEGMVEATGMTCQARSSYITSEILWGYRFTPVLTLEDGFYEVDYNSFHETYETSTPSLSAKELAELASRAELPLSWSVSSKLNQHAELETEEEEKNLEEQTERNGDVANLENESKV
Protocol: Figure S1. […] (A) A representative recording from an oocyte expressing the GIRK channel. […] (B) Current -Voltage (I-V) curve of IK before (black) and after (red) the application of 2-AG. The oocytes were voltage clamped to -80 mV and the currents after depolarizing pulses to various holding potentials from –80 mV to +40 mV at 10 mV increments were measured. Data is mean ± SEM from 7 oocytes. The difference between the two conditions is not significant (paired t-test, p>0.11 for all voltages).
Figure S2. Effect of AEA on GIRK channels. (A) A representative recording from an oocyte expressing the GIRK channel. […] (B) Current-voltage I-V curve of IK before (black) and after (red) the application of AEA. The oocytes were voltage clamped to -80 mV and the currents after depolarizing pulses to various holding potentials from –80 mV to +40 mV at 10 mV increments were measured. Data is mean ± SEM from 7 oocytes. The difference between the two conditions is not significant (paired t-test, p>0.13 for all voltages).
Figure S3. Effect of THC on GIRK channels. (A) A representative recording from an oocyte expressing the GIRK channel. […] (B) I-V curve of IK before (black) and after (red) the application of THC. The oocytes were voltage clamped to -80 mV and the currents after depolarizing pulses to various holding potentials from –80 mV to +40 mV at 10 mV increments were measured. Data is mean ± SEM from 5 oocytes. The difference between the two conditions is not significant (paired t-test, p>0.23 for all voltages).

[2] = molecular target: T2, CB1 receptor (Homo sapiens, UniProt P21554); conditions: for mean time constant of deactivation: same oocyte at both potentials, 10 oocytes
T2 construct: expressed in transfected cells; host or cells: Xenopus laevis oocytes injected with cRNA; plasmid was a gift of Ken Mackie
T2 sequence (P21554 whole entry): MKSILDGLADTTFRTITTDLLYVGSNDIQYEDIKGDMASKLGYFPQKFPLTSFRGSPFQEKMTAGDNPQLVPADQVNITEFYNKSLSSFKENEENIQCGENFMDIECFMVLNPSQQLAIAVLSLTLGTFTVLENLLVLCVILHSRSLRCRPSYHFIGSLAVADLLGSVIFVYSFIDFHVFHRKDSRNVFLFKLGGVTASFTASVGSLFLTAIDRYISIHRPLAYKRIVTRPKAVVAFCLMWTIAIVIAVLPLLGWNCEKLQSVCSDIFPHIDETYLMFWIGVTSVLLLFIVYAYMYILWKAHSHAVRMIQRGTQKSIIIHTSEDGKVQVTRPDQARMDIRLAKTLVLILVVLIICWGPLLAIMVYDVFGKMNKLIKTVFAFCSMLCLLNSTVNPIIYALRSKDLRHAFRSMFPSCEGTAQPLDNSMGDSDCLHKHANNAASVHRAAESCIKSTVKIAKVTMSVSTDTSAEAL

[3] = molecular target: T2, CB1 receptor

Row | Compound | effect of application on GIRK currents [1] | direct effect on the GIRK channel [1] | mean time constant of deactivation ([2]; +40 mV) | dissociation time constant from the receptor (decay of GIRK current after washout) ([2]; -80 mV, both agonists in the same oocytes, n = 20, mean±SD) [s] | mean time constant of deactivation ([2]; -80 mV) | enhancement of potency toward the CB1 receptor by depolarization ([3]; +40 mV versus -80 mV) | V50 (the voltage that shows half-maximal effect), Boltzmann fit ([3]; relative activation by 100 nM agonist, -80 mV to +40 mV) [mV]
1 | CCCCC/C=C\C/C=C\C/C=C\C/C=C\CCCC(=O)NCCO [AEA, anandamide] | did not evoke GIRK currents or inhibited basal GIRK currents | do not have any direct effect | – | – | – | – | –
2 | (-)-Δ9-Tetrahydrocannabinol [THC] | did not evoke GIRK currents or inhibited basal GIRK currents | do not have any direct effect | – | – | – | – | –
3 | CCCCC/C=C\C/C=C\C/C=C\C/C=C\CCCC(=O)OC(CO)CO [2-AG, 2-Arachidonoylglycerol] | did not evoke GIRK currents or inhibited basal GIRK currents | do not have any direct effect | 42.6 ± 19.8 | 30.4 ± 11.7 | 25.4 ± 14.9 | about 4 fold | −45

Source: PMC9592857, “Voltage dependence of the cannabinoid CB1 receptor” (Frontiers in Pharmacology, 2022)
